In ChEMBL document CHEMBL1201862, “PubChem BioAssay data set” (2004):
Calls of active or inactive are those of the source. Rule as the data show it: actives have a measured EC50 and inactives only a lower limit.

Biological target: T1, Streptokinase A (Streptococcus pyogenes serotype M1, UniProt P10520)
T1 sequence (P10520 whole entry): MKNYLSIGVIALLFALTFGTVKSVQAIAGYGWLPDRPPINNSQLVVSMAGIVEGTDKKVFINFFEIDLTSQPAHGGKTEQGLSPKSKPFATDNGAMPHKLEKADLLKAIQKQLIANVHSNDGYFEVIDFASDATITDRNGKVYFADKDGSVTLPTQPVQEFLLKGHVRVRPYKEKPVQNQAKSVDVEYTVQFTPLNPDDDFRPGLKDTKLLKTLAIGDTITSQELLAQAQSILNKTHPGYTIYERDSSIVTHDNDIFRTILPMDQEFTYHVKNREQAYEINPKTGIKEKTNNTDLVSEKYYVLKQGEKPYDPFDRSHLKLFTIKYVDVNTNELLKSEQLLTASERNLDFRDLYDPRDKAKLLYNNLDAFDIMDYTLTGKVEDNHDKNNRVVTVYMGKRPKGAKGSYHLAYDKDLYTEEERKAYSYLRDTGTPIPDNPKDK
Experiment: viability-normalized secreted streptokinase activity reduction – plasminogen activation absorbance, OD405, dose response (AID 1914);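 also: secreted streptokinase activity via plasminogen activation per viability signal from cell pellet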
Type: functional, Streptococcus pyogenes M1 GAS

Compound: COc1ccc(CNC(=O)c2c(C)oc3c2C(=O)c2ccccc2C3=O)cc1
- EC50: > 150 µM (not active)

Compound: CCSc1nsc(NC(=O)Nc2cccc(F)c2)n1
- EC50: 40.5 µM (active)
